# From patent publication US8603527B2, “Pharmaceutical formulations of a substituted diaminopurine” (Signal Pharmaceuticals, LLC, priority 2010, dated 2013)
# Tested on: healthy subjects
# Test: Safety in the gender, age and food study in healthy subjects
# Format: in vivo, human
# Conditions: 100 mg single oral dose, all age groups, each gender, fasting and fed
# Experimental: Group 1 (Healthy Females) and Group 3 (Elderly Males and Females): Subjects were screened within 21 days of dosing and eligible subjects were admitted to the study center on Day −1 (i.e., at least 12 hours predose) for baseline assessments and confirmation of eligibility. A single oral dose of 100 mg Compound I was administered on Day 1 following an overnight fast of at least 8 hours. Subjects were discharged from the study center the morning of Day 3 upon completion of study procedures and returned to the study center for PK blood draws and safety assessments on Days 4, 5, and 6. The end-of-study (EOS) evaluation also occurred on Day 6. Subjects returned to the study center for a follow-up visit between 7 and 10 days from EOS. Serial blood samples were collected predose and up to 120 hours postdose for the determination of plasma Compound I concentrations. Safety was monitored throughout the study; safety evaluations included AE reporting, physical examinations, vital sign measurements, ECGs, and clinical laboratory safety tests. All AEs and concomitant medications were assessed and recorded throughout the study from the time the ICF was signed through follow-up.
# Group 2 (Healthy Males): Subjects in Group 2 participated in this portion of the study to evaluate food effect using a randomized, open-label, single dose, 2-period (Period 1 and Period 2), 2-sequence, 2-way crossover design. […]
structure (smiles),measurement,value
"O[C@H]1CC[C@H](Nc2ncc3nc(Nc4c(F)cc(F)cc4F)n([C@H]4CCOC4)c3n2)CC1 [Compound I, 4-((9-((3S)-tetrahydro-3-furanyl)-8-((2,4,6-trifluorophenyl)amino)-9H-purin-2-yl)amino)-trans-cyclohexanol]",tolerability,well tolerated
